Measurements from ChEMBL document CHEMBL5247681, “Covalent S-Adenosylhomocysteine-Based DNA Methyltransferase 2 Inhibitors with a New Type of Aryl Warhead” (ACS Med Chem Lett, 2023).

Tests used:
Format in all cases: physicochemical
[1] = Stability of compound in TRIS buffer at pH 8 assessed as compound conversion in presence of DTT measured for 2 to 90 mins by LC-MS analysis; conditions: time 2-90 min
[2] = Stability of compound in TRIS buffer at pH 8 assessed as compound conversion in presence of DTT measured after 90 mins by LC-MS analysis; conditions: TRIS buffer with DTT, read-out: Drug metabolism
[3] = Stability of compound in TRIS buffer at pH 8 assessed as compound conversion in presence of DTT measured after 15 mins by LC-MS analysis; conditions: TRIS buffer with DTT, read-out: Drug metabolism

Stability [1]	degraded at 1.5 h [2] [%]	degraded at 0.25 h [3] [%]	Structure (SMILES)
Unstable	100	60	Nc1ncnc2c1ncn2[C@@H]1O[C@H](CN(CC[C@H](N)C(=O)O)S(=O)(=O)c2ccc(Br)c([N+](=O)[O-])c2)[C@@H](O)[C@H]1O
Unstable	–	–	Nc1ncnc2c1ncn2[C@@H]1O[C@H](CN(CC[C@H](N)C(=O)O)S(=O)(=O)c2ccc(F)c([N+](=O)[O-])c2)[C@@H](O)[C@H]1O
Unstable	100	60	Nc1ncnc2c1ncn2[C@@H]1O[C@H](CN(CC[C@H](N)C(=O)O)S(=O)(=O)c2ccc(Cl)c([N+](=O)[O-])c2)[C@@H](O)[C@H]1O
